In US20050215548A1 (Cyclacel Limited, priority 2002, published 2005):
Read-outs that look alike come from different tables or passages of the source.

What was measured:
Saos-2 = assay: 72-h MTT cytotoxicity assay, Saos-2; type: cell-based; conditions: Homo sapiens, Saos-2, Osteosracoma, read-out: Anti-proliferative activity, 72-h MTT IC50
Experimental: (§1) Representative bisarylsulfonamide compounds were tested on a panel of transformed and non-transformed human cell lines, using a standard 72-h MTT cytotoxicity assay [Haselsberger K et al, ibid].

SJSA-1 = assay: 72-h MTT cytotoxicity assay, SJSA-1; type: cell-based; conditions: Homo sapiens
Outline: (§2)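 Antiproliferative activity was measured on human tumour lines of differing genetic background: SJSA-1, a primitive multipotential bone sarcoma with wild-type p53 and overexpressed HDM2; H1299, a large cell lung carcinoma, p53 null with low HDM2; and AGS, a gastric adenocarcinoma carrying wild-type p53.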

p53 = p53 reporter gene assay (U2OS-derived luciferase reporter cell line); conditions: for Fold induction of luciferase activity: compared to basal luciferase activity, 16-h time point, at concentration of maximal induction; for Concentration (test compound concentration at which the p53 induction was maximal): p53 reporter, U2OS-derived cell line
Experimental: A dual assay assessing both cell viability and p53 response was employed. A U2OS-derived cell line stably transfected with a p53 response element and a luciferase reporter gene was created. […] After seeding of cells into 96-well tissue culture plates, treatment with test compounds, and incubation for the desired duration, the cell proliferation reagent WST-1 (Roche Molecular Biochemicals) was used to determine cell viability. The Bright-Glo™ Luciferase Assay System (Promega) was used to measure luciferase activity. The data from the cell viability assay was used to normalise data from the luciferase assay.

SKUT-1 = assay: 72-h MTT cytotoxicity assay, SKUT-1; type: cell-based; conditions: Homo sapiens, SK-UT-1, 72 h; SKUT-1, Uterus leiomyosarcoma; read-out: Anti-proliferative activity, 72-h MTT IC50
Experimental: as §1

HT29 = assay: 72-h MTT cytotoxicity assay, HT29; type: cell-based; conditions: Homo sapiens, HT-29, 72 h; HT29, Colon adenocarcinoma; read-out: Anti-proliferative activity, 72-h MTT IC50
Experimental: as §1

HCT116 = assay: 72-h MTT cytotoxicity assay, HCT116; type: cell-based; conditions: Homo sapiens, HCT-116, 72 h; HCT116, Colon carcinoma; read-out: Anti-proliferative activity, 72-h MTT IC50
Experimental: as §1

sarcoma cell lines = assay: 72-h MTT panel, average sarcomas; type: cell-based; conditions: Homo sapiens, average over sarcoma cell lines, read-out: Anti-proliferative activity, 72-h MTT IC50, Average sarcomas
Experimental: as §1
(§3) This differential selectivity further supports the notion that the bisarylsulfonamides modulate cellular HDM2 function. It is known that HDM2 amplification is particularly common in soft tissue sarcomas and osteosarcomas [Momand J et al, ibid; Bartel F, Meye A, Wurl P, Kappler M, Bache M, Lautenschlager C, Grunbaum U, Schmidt H, Taubert H; Int. J. Cancer 2001; 95: 168-175].

Messa-Dx5 = assay: 72-h MTT cytotoxicity assay, Messa-Dx5; type: cell-based; conditions: Homo sapiens, MES-SA/Dx5, 72 h; Messa-Dx5, Uterus sarcoma; read-out: Anti-proliferative activity, 72-h MTT IC50
Experimental: as §1

U2OS = assay: 72-h MTT cytotoxicity assay, U2OS; type: cell-based; conditions: Homo sapiens, Osteosracoma, read-out: Anti-proliferative activity, 72-h MTT IC50
Experimental: as §1

Nci-H460 = assay: 72-h MTT cytotoxicity assay, Nci-H460; type: cell-based; conditions: Homo sapiens, Nci-H460, Large cell lung carcinoma, read-out: Anti-proliferative activity, 72-h MTT IC50
Experimental: as §1

DU145 = assay: 72-h MTT cytotoxicity assay, DU145; type: cell-based; conditions: Homo sapiens, DU-145, 72 h; DU145, Prostate carcinoma; read-out: Anti-proliferative activity, 72-h MTT IC50
Experimental: as §1

HDM2 = molecular target: T1, HDM2 (Homo sapiens, UniProt Q00987); assay: Fluorescence polarisation competitive HDM2 binding assay
T1 construct: Recombinant HDM2 (1.5 μg per well) in TBS-BSA buffer
Outline: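 Recombinant HDM2 (1.5 μg/well) was preincubated 5 min at room temperature with serially diluted compound in 50 mM Tris pH 7.4, 150 mM NaCl, 0.1% BSA, 5% DMSO final. Fluorescein-labelled p53 peptide (0.2 μM) was then added for 45 min. Polarisation was read at 485/520 nm and IC50 derived from dose-response curves.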

IMR90 = assay: 72-h MTT cytotoxicity assay, IMR90; type: cell-based; conditions: Homo sapiens, IMR-90, 72 h; IMR90, Lung fibroblasts; read-out: Anti-proliferative activity, 72-h MTT IC50
Experimental: as §1

AGS = assay: 72-h MTT cytotoxicity assay, AGS; type: cell-based; conditions: Homo sapiens
Outline: as §2

A549 = assay: 72-h MTT cytotoxicity assay, A549; type: cell-based; conditions: Homo sapiens, A549, Lung carcinoma, read-out: Anti-proliferative activity, 72-h MTT IC50
Experimental: as §1

MCF7 = assay: 72-h MTT cytotoxicity assay, MCF7; type: cell-based; conditions: Homo sapiens, MCF7, Breast adenocarcinoma, read-out: Anti-proliferative activity, 72-h MTT IC50
Experimental: as §1

HeLa = assay: 72-h MTT cytotoxicity assay, HeLa; type: cell-based; conditions: Homo sapiens, Cervical carcinoma, read-out: Anti-proliferative activity, 72-h MTT IC50
Experimental: as §1

WI38 = assay: 72-h MTT cytotoxicity assay, WI38; type: cell-based; conditions: Homo sapiens, WI-38, 72 h; WI38, Lung fibroblasts; read-out: Anti-proliferative activity, 72-h MTT IC50
Experimental: as §1

HS27 = assay: 72-h MTT cytotoxicity assay, HS27; type: cell-based; conditions: Homo sapiens, HS27, Foreskin fibroblasts, read-out: Anti-proliferative activity, 72-h MTT IC50
Experimental: as §1

Messa = assay: 72-h MTT cytotoxicity assay, Messa; type: cell-based; conditions: Homo sapiens, MES-SA, Uterus sarcoma, read-out: Anti-proliferative activity, 72-h MTT IC50
Experimental: as §1

Lovo = assay: 72-h MTT cytotoxicity assay, Lovo; type: cell-based; conditions: Homo sapiens, Colon adenocarcinoma, read-out: Anti-proliferative activity, 72-h MTT IC50
Experimental: as §1

carcinoma cell lines = assay: 72-h MTT panel, average carcinomas; type: cell-based; conditions: Homo sapiens, average over carcinoma cell lines, read-out: Anti-proliferative activity, 72-h MTT IC50, Average carcinomas
Experimental: as §1, §3

[1] = 72 h, SJSA-1, Osteosracoma, Table 2, read-out: Anti-proliferative activity, 72-h MTT IC50
[2] = SJSA-1, 72-h MTT, Table 1, read-out: IC50 Anti-proliferative effect on cell line SJSA-1
[3] = fluorescence polarisation assay, Table 3, read-out: In vitro competitive HDM2 binding assay IC50
[4] = fluorescence polarisation format, Table 1, read-out: IC50 In vitro competitive HDM2 binding assay
[5] = 72-h MTT, Table 1, read-out: IC50 Anti-proliferative effect on cell line AGS
[6] = 72 h, Gastric adenocarcinoma, Table 2, read-out: Anti-proliferative activity, 72-h MTT IC50

T1 sequence (Q00987 whole entry): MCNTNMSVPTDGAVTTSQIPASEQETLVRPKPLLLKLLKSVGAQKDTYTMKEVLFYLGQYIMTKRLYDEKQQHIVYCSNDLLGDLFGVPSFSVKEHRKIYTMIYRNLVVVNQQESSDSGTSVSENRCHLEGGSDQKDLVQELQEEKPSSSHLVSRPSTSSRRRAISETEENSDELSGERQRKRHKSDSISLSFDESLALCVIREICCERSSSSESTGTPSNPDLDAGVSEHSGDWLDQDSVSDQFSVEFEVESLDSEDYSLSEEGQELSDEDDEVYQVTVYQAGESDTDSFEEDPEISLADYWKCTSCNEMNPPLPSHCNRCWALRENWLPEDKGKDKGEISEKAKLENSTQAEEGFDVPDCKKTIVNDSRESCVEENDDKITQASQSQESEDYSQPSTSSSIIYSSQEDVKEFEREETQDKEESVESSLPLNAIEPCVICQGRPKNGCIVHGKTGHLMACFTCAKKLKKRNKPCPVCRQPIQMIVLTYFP

In the case of `O=[N+]([O-])c1cc(S(=O)(=O)Nc2ccc(Cl)cc2)sc1Cl` [Compound 2, 5-Chloro-4-nitrothiophene-2-sulfonic acid (4-chlorophenyl)-amide], the IC50 (Saos-2) is reported as 9.5 µM, the IC50 (SJSA-1; [1]) is reported as 13.5 µM and the IC50 (SJSA-1; [2]) is reported as 13.6 ± 1.1 µM. For the same molecule, the IC50 (SJSA-1; SJSA-1, Example 9, read-out: anti-proliferative IC50 concentration determined for each cell line) was 15 µM, the “Fold induction of luciferase activity” value (p53) was 231 fold and the “Concentration (test compound concentration at which the p53 induction was maximal)” value (“Concentration” below) (p53) was 6 µM. It also gave an IC50 (SKUT-1) of 8.8 µM, an IC50 (HT29) of 2.1 µM and an IC50 (HCT116) of 2.8 µM. For the same molecule, the IC50 (sarcoma cell lines) was 10.2 ± 2.7 µM, the IC50 (Messa-Dx5) was 9.5 µM and the IC50 (U2OS) was 6.2 µM. It also gave an IC50 (Nci-H460) of 3.3 µM, an IC50 (DU145) of 3.1 µM and an IC50 (HDM2; [3]) of 26.4 ± 3.4 µM. The IC50 (HDM2; [4]) was 26.4 ± 3.4 µM, the IC50 (IMR90) was 23.1 µM and the IC50 (AGS; [5]) was 1.1 ± 0.2 µM. The IC50 (AGS; [6]) was 1.2 µM, the IC50 (AGS; Example 9, read-out: anti-proliferative IC50 concentration determined for each cell line) was 1 µM and the IC50 (A549) was 5.2 µM. It also gave an IC50 (MCF7) of 2.7 µM, an IC50 (HeLa) of 2.8 µM and an IC50 (WI38) of 22.7 µM. The IC50 (HS27) was 17.3 µM, the IC50 (Messa) was 13.1 µM and the IC50 (Lovo) was 2.1 µM. For the same molecule, the IC50 (carcinoma cell lines) was 3.1 ± 1.2 µM.

Work on `O=[N+]([O-])c1cc(S(=O)(=O)Nc2ccc(F)cc2)sc1Cl` [Compound 3, 5-Chloro-4-nitrothiophene-2-sulfonic acid (4-fluorophenyl)amide] yielded an IC50 (Saos-2) of 8.9 µM, an IC50 (SJSA-1; [1]) of 14.1 µM and an IC50 (SJSA-1; [2]) of 17.1 ± 0.4 µM. The “Fold induction of luciferase activity” value (p53) was 200 fold, the “Concentration” value (p53) was 6 µM and the IC50 (SKUT-1) was 14.1 µM. The IC50 (HT29) was 2.3 µM, the IC50 (HCT116) was 3.5 µM and the IC50 (sarcoma cell lines) was 12.1 ± 3.8 µM. It also gave an IC50 (Messa-Dx5) of 12.1 µM, an IC50 (U2OS) of 8.2 µM and an IC50 (Nci-H460) of 5.2 µM. For the same molecule, the IC50 (DU145) was 3.6 µM, the IC50 (HDM2; [3]) was 41.9 ± 5.8 µM and the IC50 (HDM2; [4]) was 41.9 ± 5.8 µM. The IC50 (IMR90) was 19.8 µM, the IC50 (AGS; [5]) was 1.5 ± 0.3 µM and the IC50 (AGS; [6]) was 1.7 µM. It also gave an IC50 (A549) of 5.9 µM, an IC50 (MCF7) of 1.9 µM and an IC50 (HeLa) of 2.7 µM. For the same molecule, the IC50 (WI38) was 21.1 µM, the IC50 (HS27) was 15.2 µM and the IC50 (Messa) was 18.3 µM. For the same molecule, the IC50 (Lovo) was 2.3 µM and the IC50 (carcinoma cell lines) was 3.8 ± 1.8 µM.

`O=[N+]([O-])c1cc(S(=O)(=O)Nc2ccc(C(F)(F)F)cc2)sc1Cl` [Compound 6, 5-Chloro-4-nitrothiophene-2-sulfonic acid (4-trifluoromethylphenyl)amide] was tested, and the IC50 (Saos-2) was 12 µM, the IC50 (SJSA-1; [1]) was 17.8 µM and the IC50 (SJSA-1; [2]) was 22.5 ± 0.6 µM. For the same molecule, the “Fold induction of luciferase activity” value (p53) was 84 fold, the “Concentration” value (p53) was 5.5 µM and the IC50 (SKUT-1) was 15 µM. For the same molecule, the IC50 (HT29) was 3.5 µM, the IC50 (HCT116) was 6 µM and the IC50 (sarcoma cell lines) was 13.7 ± 3.1 µM. For the same molecule, the IC50 (Messa-Dx5) was 15.5 µM, the IC50 (U2OS) was 10.2 µM and the IC50 (Nci-H460) was 8 µM. The IC50 (DU145) was 6.1 µM, the IC50 (HDM2; [3]) was 20.4 ± 1.4 µM and the IC50 (HDM2; [4]) was 20.4 ± 1.4 µM. It also gave an IC50 (IMR90) of 29.8 µM, an IC50 (AGS; [5]) of 2 ± 0.3 µM and an IC50 (AGS; [6]) of 2.2 µM. It also gave an IC50 (A549) of 10 µM, an IC50 (MCF7) of 3.3 µM and an IC50 (HeLa) of 3.9 µM. The IC50 (WI38) was 30 µM, the IC50 (HS27) was 21.4 µM and the IC50 (Messa) was 16 µM. For the same molecule, the IC50 (Lovo) was 3.9 µM and the IC50 (carcinoma cell lines) was 4.9 ± 2.3 µM.
